In PubChem BioAssay AID2060894 (Molecular Pharmacology Branch, DTP, NCI, 2025):
pIC50: −log10 of the molar value.

System: K12877-001-R-J1-PDC complex spheroid viability
Test: Anticancer human tumor K12877-001-R-J1-PDC patient-derived lung adenocarcinoma cell line growth inhibition [RAS]
Details: for pIC50: curve of first compound; for viability, T/C: stronger effect = lower value
How it was run: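 Agents were tested in combination matrices in half-log decrements from a top concentration at or near clinical Cmax (10 microM if undetermined). Targets were multi-cell spheroids of tumour lines plus HUVEC and MSC stromal cells.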
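Also: spheroids exposed to agents for one week before readout.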
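For viability, T/C in this document: tumour cells co-cultured with HUVEC and mesenchymal stem cells in spheroids.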

Q: With `C=CC(=O)N1CCN(c2nc(OCC3CCCN3C)nc3c(F)c(-c4nc(N)cc(C)c4C(F)(F)F)c(Cl)cc23)C(C)C1` (configuration not stated) + C#Cc1c(F)ccc2cc(O)cc(-c3ncc4c(N5CC6CCC(C5)N6)nc(OCC56CCCN5CC(F)C6)nc4c3F)c12 as the compound, how does the pIC50 (second compound 0.0316 µM) read?
A: The pIC50 was less than 6.00.

Q: And the pIC50 (second compound 0.1 µM)?
A: Its pIC50 is less than 6.00.

Q: What about the pIC50 (second compound 0.316 µM) of the same compound?
A: The pIC50 was less than 6.00.

Q: And the pIC50 (second compound 1 µM)?
A: Its pIC50 is less than 6.00.

Q: What about the pIC50 (second compound 3.16 µM) of the same compound?
A: The pIC50 was less than 6.00.

Q: What about the pIC50 (second compound 10 µM) of the same compound?
A: Its pIC50 is less than 6.00.

Q: And the viability, T/C (second compound 0.0316 µM, first compound 0.00316 µM)?
A: Its viability, T/C is 97.7%.

Q: What about the viability, T/C (second compound 0.0316 µM, first compound 0.01 µM) of the same compound?
A: Its viability, T/C is 87.3%.

Q: And the viability, T/C (second compound 0.0316 µM, first compound 0.0316 µM)?
A: The viability, T/C was 90.9%.

Q: What about the viability, T/C (second compound 0.0316 µM, first compound 0.1 µM) of the same compound?
A: The viability, T/C was 79.4%.

Q: What about the viability, T/C (second compound 0.0316 µM, first compound 0.316 µM) of the same compound?
A: Its viability, T/C is 85.3%.

Q: And the viability, T/C (second compound 0.0316 µM, first compound 1 µM)?
A: The viability, T/C was 72.8%.

Q: What about the viability, T/C (second compound 0.1 µM, first compound 0.00316 µM) of the same compound?
A: The viability, T/C was 99.2%.

Q: What about the viability, T/C (second compound 0.1 µM, first compound 0.01 µM) of the same compound?
A: Its viability, T/C is 84.5%.

Q: And the viability, T/C (second compound 0.1 µM, first compound 0.0316 µM)?
A: The viability, T/C was 83.7%.

Q: What about the viability, T/C (second compound 0.1 µM, first compound 0.1 µM) of the same compound?
A: Its viability, T/C is 78.3%.

Q: What about the viability, T/C (second compound 0.1 µM, first compound 0.316 µM) of the same compound?
A: Its viability, T/C is 83.8%.

Q: And the viability, T/C (second compound 0.1 µM, first compound 1 µM)?
A: Its viability, T/C is 75.5%.

Q: And the viability, T/C (second compound 0.316 µM, first compound 0.00316 µM)?
A: Its viability, T/C is 95.8%.

Q: What about the viability, T/C (second compound 0.316 µM, first compound 0.01 µM) of the same compound?
A: The viability, T/C was 86.2%.

Q: What about the viability, T/C (second compound 0.316 µM, first compound 0.0316 µM) of the same compound?
A: Its viability, T/C is 83.4%.

Q: And the viability, T/C (second compound 0.316 µM, first compound 0.1 µM)?
A: The viability, T/C was 89.7%.

Q: What about the viability, T/C (second compound 0.316 µM, first compound 0.316 µM) of the same compound?
A: Its viability, T/C is 75%.

Q: And the viability, T/C (second compound 0.316 µM, first compound 1 µM)?
A: Its viability, T/C is 81.9%.

Q: What about the viability, T/C (second compound 1 µM, first compound 0.00316 µM) of the same compound?
A: The viability, T/C was 101%.

Q: And the viability, T/C (second compound 1 µM, first compound 0.01 µM)?
A: The viability, T/C was 85.3%.

Q: What about the viability, T/C (second compound 1 µM, first compound 0.0316 µM) of the same compound?
A: The viability, T/C was 77.5%.

Q: What about the viability, T/C (second compound 1 µM, first compound 0.1 µM) of the same compound?
A: The viability, T/C was 89.8%.

Q: And the viability, T/C (second compound 1 µM, first compound 0.316 µM)?
A: Its viability, T/C is 78.2%.

Q: What about the viability, T/C (second compound 1 µM, first compound 1 µM) of the same compound?
A: Its viability, T/C is 77.8%.

Q: And the viability, T/C (second compound 3.16 µM, first compound 0.00316 µM)?
A: Its viability, T/C is 106%.

Q: And the viability, T/C (second compound 3.16 µM, first compound 0.01 µM)?
A: Its viability, T/C is 92.2%.

Q: What about the viability, T/C (second compound 3.16 µM, first compound 0.0316 µM) of the same compound?
A: Its viability, T/C is 80.7%.

Q: And the viability, T/C (second compound 3.16 µM, first compound 0.1 µM)?
A: The viability, T/C was 83.1%.

Q: And the viability, T/C (second compound 3.16 µM, first compound 0.316 µM)?
A: Its viability, T/C is 85%.

Q: And the viability, T/C (second compound 3.16 µM, first compound 1 µM)?
A: Its viability, T/C is 73.9%.

Q: What about the viability, T/C (second compound 10 µM, first compound 0.00316 µM) of the same compound?
A: The viability, T/C was 94.4%.

Q: What about the viability, T/C (second compound 10 µM, first compound 0.01 µM) of the same compound?
A: Its viability, T/C is 87.3%.

Q: And the viability, T/C (second compound 10 µM, first compound 0.0316 µM)?
A: Its viability, T/C is 79.1%.

Q: What about the viability, T/C (second compound 10 µM, first compound 0.1 µM) of the same compound?
A: Its viability, T/C is 79.8%.

Q: What about the viability, T/C (second compound 10 µM, first compound 0.316 µM) of the same compound?
A: The viability, T/C was 78.2%.

Q: What about the viability, T/C (second compound 10 µM, first compound 1 µM) of the same compound?
A: The viability, T/C was 83.2%.
